Data published in ChEMBL document CHEMBL4052736, “Synthesis, antioxidant, antifungal, molecular docking and ADMET studies of some thiazolyl hydrazones” (Bioorg Med Chem Lett, 2017).
Values after ≈ are worked out from the molar mass of the structure shown.

Experiments:
Assay type in all cases: functional
[1] = system: Aspergillus niger; assay: Antifungal activity against Aspergillus niger after 24 hrs by well diffusion method
[2] = system: Candida albicans; assay: Antifungal activity against Candida albicans after 24 hrs by well diffusion method
[3] = system: Aspergillus flavus; assay: Antifungal activity against Aspergillus flavus assessed as zone of inhibition at 25 ug/ml measured after 24 hrs by well diffusion method; conditions: read-out: IZ
[4] = system: Aspergillus flavus; assay: Antifungal activity against Aspergillus flavus assessed as zone of inhibition at 50 ug/ml measured after 24 hrs by well diffusion method; conditions: read-out: IZ
[5] = Antioxidant activity assessed as DPPH free radical scavenging activity at 20 ug/ml after 15 mins by spectrophotometric method
[6] = Antioxidant activity assessed as DPPH free radical scavenging activity at 40 ug/ml after 15 mins by spectrophotometric method
[7] = Antioxidant activity assessed as DPPH free radical scavenging activity at 60 ug/ml after 15 mins by spectrophotometric method
[8] = Antioxidant activity assessed as DPPH free radical scavenging activity at 80 ug/ml after 15 mins by spectrophotometric method
[9] = Antioxidant activity assessed as DPPH free radical scavenging activity at 100 ug/ml after 15 mins by spectrophotometric method
[10] = Antioxidant activity assessed as DPPH free radical scavenging activity measured after 15 mins by spectrophotometric method
[11] = Antioxidant activity assessed as H2O2 free radical scavenging activity at 20 ug/ml after 10 to 15 mins by spectrophotometric analysis
[12] = Antioxidant activity assessed as H2O2 free radical scavenging activity at 40 ug/ml after 10 to 15 mins by spectrophotometric analysis
[13] = Antioxidant activity assessed as H2O2 free radical scavenging activity at 60 ug/ml after 10 to 15 mins by spectrophotometric analysis
[14] = Antioxidant activity assessed as H2O2 free radical scavenging activity at 80 ug/ml after 10 to 15 mins by spectrophotometric analysis
[15] = Antioxidant activity assessed as H2O2 free radical scavenging activity at 100 ug/ml after 10 to 15 mins by spectrophotometric analysis
[16] = Antioxidant activity assessed as H2O2 free radical scavenging activity by spectrophotometric analysis
[17] = system: Aspergillus niger; assay: Antifungal activity against Aspergillus niger assessed as zone of inhibition at 25 ug/ml measured after 24 hrs by well diffusion method; conditions: read-out: IZ
[18] = system: Aspergillus niger; assay: Antifungal activity against Aspergillus niger assessed as zone of inhibition at 50 ug/ml measured after 24 hrs by well diffusion method; conditions: read-out: IZ
[19] = system: Aspergillus niger; assay: Antifungal activity against Aspergillus niger assessed as zone of inhibition at 100 ug/ml measured after 24 hrs by well diffusion method; conditions: read-out: IZ
[20] = system: Candida albicans; assay: Antifungal activity against Candida albicans assessed as zone of inhibition at 100 ug/ml measured after 24 hrs by well diffusion method; conditions: read-out: IZ
[21] = system: Candida albicans; assay: Antifungal activity against Candida albicans assessed as zone of inhibition at 50 ug/ml measured after 24 hrs by well diffusion method; conditions: read-out: IZ
[22] = system: Candida albicans; assay: Antifungal activity against Candida albicans assessed as zone of inhibition at 25 ug/ml measured after 24 hrs by well diffusion method; conditions: read-out: IZ
[23] = system: Aspergillus flavus; assay: Antifungal activity against Aspergillus flavus assessed as zone of inhibition at 100 ug/ml measured after 24 hrs by well diffusion method; conditions: read-out: IZ
[24] = system: Aspergillus flavus; assay: Antifungal activity against Aspergillus flavus after 24 hrs by well diffusion method

Compound | MIC [2] [µg/mL] | zone of inhibition at 25 µg/mL [3] [mm] | zone of inhibition at 50 µg/mL [4] [mm] | inhibition [5] [%] | inhibition [6] [%] | inhibition [7] [%] | inhibition [8] [%] | inhibition [9] [%] | IC50 [10] [µg/mL] | inhibition [11] [%] | inhibition [12] [%] | inhibition [13] [%] | inhibition [14] [%] | inhibition [15] [%] | IC50 [16] [µg/mL] | zone of inhibition at 25 µg/mL [17] [mm] | zone of inhibition at 50 µg/mL [18] [mm] | zone of inhibition at 100 µg/mL [19] [mm] | zone of inhibition at 100 µg/mL [20] [mm] | zone of inhibition at 50 µg/mL [21] [mm] | further results
C(=N\Nc1nc(-c2ccccc2)cs1)/c1cccs1 | 12.5 (≈ 43.8 µM) | 8 | 12 | 95.5 | 95.8 | 97.6 | 97.1 | 96.8 | 26.008 (≈ 91.1 µM) | 87.5 | 90 | 91 | 92.4 | 94 | 31.03 (≈ 109 µM) | 6 | 8 | 10 | 12 | 10 | MIC [1]: 25 µg/mL (≈ 87.6 µM); zone of inhibition at 25 µg/mL [22]: 6 mm; zone of inhibition at 100 µg/mL [23]: 15 mm
COc1ccc(-c2csc(N/N=C/c3ccc(Cl)cc3Cl)n2)cc1 | 25 (≈ 66.1 µM) | 6 | 6 | 65.5 | 69.5 | 86.9 | 90.6 | 93.3 | 34.966 (≈ 92.4 µM) | 78.1 | 79.7 | 82.8 | 84.2 | 87.5 | 40.405 (≈ 107 µM) | 6 | 6 | 6 | 7 | 6 | zone of inhibition at 25 µg/mL [22]: 6 mm; zone of inhibition at 100 µg/mL [23]: 6 mm
COC(=O)c1cc(-c2csc(N/N=C/c3ccc(Cl)cc3Cl)n2)ccc1OCc1ccccc1 | 6.25 (≈ 12.2 µM) | 6 | 6 | 19.2 | 37.2 | 41.9 | 45.5 | 56.1 | 88.844 (≈ 173 µM) | 58.9 | 63.5 | 66.3 | 71.8 | 75 | 57.873 (≈ 113 µM) | 6 | 6 | 6 | 13 | 10 | zone of inhibition at 25 µg/mL [22]: 12 mm; zone of inhibition at 100 µg/mL [23]: 14 mm
Fc1ccc(-c2csc(N/N=C/c3ccc(Cl)cc3Cl)n2)cc1 | 6.25 (≈ 17.1 µM) | 8 | 10 | 90.7 | 93.3 | 94.6 | 95.5 | 96 | 27.139 (≈ 74.1 µM) | 88.4 | 90 | 92.4 | 94 | 95.6 | 35.539 (≈ 97 µM) | 6 | 6 | 6 | 13 | 11 | MIC [24]: 12.5 µg/mL (≈ 34.1 µM); zone of inhibition at 25 µg/mL [22]: 10 mm; zone of inhibition at 100 µg/mL [23]: 12 mm
Clc1ccc(-c2csc(N/N=C/c3cccs3)n2)cc1 | 6.25 (≈ 19.5 µM) | 8 | 17 | 94.4 | 96 | 96.1 | 96.6 | 97 | 26.335 (≈ 82.3 µM) | 82.8 | 83.2 | 85.2 | 86 | 87.1 | 39.58 (≈ 124 µM) | 6 | 6 | 8 | 18 | 14 | MIC [24]: 12.5 µg/mL (≈ 39.1 µM); zone of inhibition at 25 µg/mL [22]: 11 mm; zone of inhibition at 100 µg/mL [23]: 20 mm
Cc1ccc(-c2csc(N/N=C/c3cccs3)n2)cc1 | 6.25 (≈ 20.9 µM) | 6 | 6 | 90.9 | 97 | 97.6 | 97.8 | 98.1 | 29.837 (≈ 99.6 µM) | 79.6 | 82.8 | 84.4 | 88.4 | 91 | 35.933 (≈ 120 µM) | 6 | 6 | 6 | 15 | 14 | zone of inhibition at 25 µg/mL [22]: 13 mm; zone of inhibition at 100 µg/mL [23]: 6 mm
Fc1ccc(-c2csc(N/N=C/c3cccs3)n2)cc1 | 6.25 (≈ 20.6 µM) | 6 | 6 | 92.4 | 93.3 | 94.6 | 66.3 | 97 | 44.12 (≈ 145 µM) | 84.2 | 87.5 | 90.3 | 91.9 | 92.4 | 35.206 (≈ 116 µM) | 6 | 10 | 13 | 15 | 14 | MIC [1]: 25 µg/mL (≈ 82.4 µM); zone of inhibition at 25 µg/mL [22]: 12 mm; zone of inhibition at 100 µg/mL [23]: 6 mm
COC(=O)c1cc(-c2csc(N/N=C/c3cccs3)n2)ccc1OCc1ccccc1 | 25 (≈ 55.6 µM) | 6 | 6 | 94.3 | 94.9 | 95.5 | 96 | 96.3 | 28.131 (≈ 62.6 µM) | 79.6 | 82.8 | 84.4 | 87.6 | 92.4 | 29.212 (≈ 65 µM) | 6 | 6 | 6 | 10 | 8 | zone of inhibition at 25 µg/mL [22]: 6 mm; zone of inhibition at 100 µg/mL [23]: 6 mm
O=C1O[C@H]([C@@H](O)CO)C(O)=C1O [ASCORBIC ACID] | – | – | – | 93.4 | 94.6 | 95.5 | 96 | 97 | 26.771 (≈ 152 µM) | 93.4 | 94.6 | 95.5 | 96 | 97 | 26.771 (≈ 152 µM) | – | – | – | – | – | –
O=C(O)Cc1ccccc1Nc1c(Cl)cccc1Cl | – | – | – | 97.1 | – | – | – | – | – | – | – | – | – | – | – | – | – | – | – | – | –
OC(Cn1cncn1)(Cn1cncn1)c1ccc(F)cc1F [FLUCONAZOLE] | < 3.12 | 15 | 18 | – | – | – | – | – | – | – | – | – | – | – | – | 14 | 20 | 25 | 28 | 22 | MIC [24]: < 3.12 µg/mL; MIC [1]: < 3.12 µg/mL; zone of inhibition at 25 µg/mL [22]: 15 mm; zone of inhibition at 100 µg/mL [23]: 20 mm
Cc1ccc(-c2csc(N/N=C/c3ccc(Cl)cc3Cl)n2)cc1 | 25 (≈ 69 µM) | 6 | 10 | 86 | 86.2 | 93.3 | 90.7 | 95.1 | 30.791 (≈ 85 µM) | 76.2 | 80.4 | 83.2 | 84.2 | 85.3 | 40.004 (≈ 110 µM) | 6 | 6 | 6 | 8 | 6 | MIC [24]: 25 µg/mL (≈ 69 µM); zone of inhibition at 25 µg/mL [22]: 6 mm; zone of inhibition at 100 µg/mL [23]: 16 mm
